This is an account of results in US6077826A, “Synthetic macromolecular channel assembly for transport of chloride ions through epithelium useful in treating cystic fibrosis” (Kansas State University Research Foundation, priority 1998, dated 2000).

The target in test [1] is T1, tetrameric channel (Homo sapiens, UniProt P23415).
T1 construct: 9-amino acid carrier template (tethers four peptide copies)
Conditions: lipid bilayers; cited from earlier work.

For test [2], the system named is C-K4 -M2GlyR-generated (SEQ ID NO: 7) ISC across MDCK monolayers. Briefly: Effect of Cl- transport inhibitors on C-K4-M2GlyR-generated Isc across MDCK monolayers. Format: cell-based, canine. The settings on record: for fraction of stimulated current remaining: four monolayers. As for the experimental part:
Electrical measurements. MDCK cells (2.5×10^5) were plated on permeable supports (Snapwell, 12 mm dia.; Costar Corp), coated with a mixture of types I and III collagen (ICN, Costa Mesa, Ca.). The Snapwell supports were placed in a 6 well culture plate containing DME/F12+P/S and 1% FCS (0.4 mL in the upper part and 5 mL in the lower). MDCK monolayers were allowed to reach confluency and after 5 days of growth were mounted in Using chambers designed for cell culture (Costar). The position of the monolayer and the supporting membrane separated the apical and the basolateral compartments. Both sides of the monolayers were bathed in 5 mL of a Ringer's solution containing (in mM); 147 Na^+, 119 Cl^-, 20 HCO3^-, 6 alanine, 5 K^+, 5 acetate, 5 glucose, 4 lactate, 2.5 HPO4^- 1.2 Mg^+2, 1.2 SO4^-2 1 citrate, 0.5 butyric acid and 14 raffinose. The media in each half-chamber was circulated by a bubble-lift method with a gas mixture of 95% O2 /5% CO2 and maintained at 37° C. In experiments in which we removed chloride from the Ringer's solution, the molar equivalent of cyclamate was used.
The transepithelial voltage was measured using glass capillary tubes containing a plug of 5% agar in 3 M KCl and situated near each side of the cell layer. The glass tube was filled above the agar plug with 3 M KCl and Ag/AgCl electrodes were inserted into the KCI. Current electrodes consisted of a coil of platinum wire (30 gauge) located at the ends of each half-chamber. Transepithelial potential (Vtc); the short-circuitcurrent (Isc), the current necessary to clamp the voltage to zero; and the transepithelial resistance (Ftc) were measured at five minute intervals with a dual epithelial voltage clamp apparatus (Warner Instrument, Hamden, Conn.) as previously described in detail (Mangoo-Karimet al.; 1995). The average of the last two measurements in each period were used for comparison between pairs of monolayers and among each group.
In electrophysiological studies, niflumic acid, 5-nitro-2-(3-phenylpropylamino)-benzoate (NPPB, provided by SmithKline Beecham), diphenylamine-2-carboxylate (DPC, Fluka Chemika), and glibenclamide were dissolved in 100% ethanol. The maximal final concentration of ethanol, 0.5%, was without effect on Isc.
Effect of Cl^- channel blockers. We tested a variety of Cl^- channel blockers on the Isc generated by apical application of C-K4 -M2GlyR (SEQ ID NO: 7). […]. […] A negative change indicates a reduction in the current. The sensitivity sequence of the peptide-induced current to the Cl^- channel blockers was niflumic acid≥NPPB>DPC>glibenclamide>>>DIDS.

The subject of test [3] is M2GlyR-stimulated Isc. Briefly: Effect of Cl- transport inhibitors on M2GlyR-stimulated Isc in MDCK monolayers. It counts as cell-based, canine.
Test [4] relates to forskolin-stimulated current. The settings on record: apical DPC, previously published dose response; cited from earlier work.
The subject of test [5] is MDCK monolayers. Briefly: Intracellular cAMP by radioimmunoassay in MDCK monolayers. Format: cell-based, canine. Conditions: 10 μM forskolin, 2 hrs. As for the experimental part: Cyclic adenosine monophosphate measurements. Confluent monolayers of MDCK cells were incubated in defined media (1.7 mL apical and 2.5 mL basolateral) or defined media containing either 10 μM basolateral forskolin or 500 μM apical C-K4 -[…] (SEQ ID NO: 7) for two hours. Monolayers were rinsed in Ca^+2 -, Mg^+2 -tree phosphate buffered saline (PBS), then treated with 5% trichloroacetic acid (TCA) to deactivate endogenous phosphodiesterases. […] Intracellular cAMP remained in the aqueous phase. After the water and ether phases separated, the water phase was collected. Relative levels of intracellular cAMP were determined by radioimmunoassay (Biomedical Technology Inc, Stoughton, Mass.) using methods previously described (Krishna and Terranova; 1987).

Test [6] has as its system MDCK monolayers. Briefly: Fluid secretion / fluid transport by MDCK monolayers (24 hr collection). The settings on record: 500 μM apical peptide or 10 μM basolateral forskolin, n = 12 (Table 6).
The mark [7] stands for this setting: 100 μM basolateral bumetanide after 100 μM apical SEQ ID NO: 7, n = 8.
The mark [8] stands for this setting: 100 μM basolateral bumetanide after 100 μM apical SEQ ID NO: 7, n = 8, listed as bumetanide.
[9] abbreviates: 100 μM inhibitor apical for 20 minutes after 100 μM C-K4-M2GlyR, negative = inhibition.

T1 sequence (P23415 278-300 limits assumed): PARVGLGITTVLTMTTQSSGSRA

For `O=C(O)c1c2ccccc2cc2ccccc12` [9-AC, 9-anthracene carboxylic acid], the “block of the tetrameric channel” value in test [1] is listed as “blocked”.

For the compound `CCCCNc1cc(C(=O)O)cc(S(N)(=O)=O)c1Oc1ccccc1` [Bumetanide, bumetanide], in test [2] (setting [7]), the ISC after bumetanide was determined as 1.4 ± 0.4 μA/cm^2, the Rtc after bumetanide is on record as 2145 ± 474 Ohms.cm^2 and the Vtc after bumetanide was -2.8±0.6 mV. Besides, in test [2] (setting [8]), the ISC after bumetanide is given as 1.4 μA/cm^2 and the Rtc after bumetanide result is “not significant”. Besides, in test [2] (100 μM basolateral bumetanide, n = 8), the “inhibition of the peptide-generated Isc” value worked out at 97%. The “effect on the peptide-generated current” value in test [2] (100 μM basolateral bumetanide, typical experiment FIG. 6) is given as “blocked the peptide-generated current”. Moreover, the “Isc after subsequent addition of bumetanide” value in test [3] (100 μM basolateral bumetanide after M2GlyR, five experiments) is on record as 1.3±0.3 μA/cm^2.

Regarding `O=C(O)c1ccccc1Nc1ccccc1` [DPC, diphenylamine-2-carboxylate], the “fraction of stimulated current remaining” value in test [2] (100 μM apical DPC) turned out to be 68±2%; in test [2] (1 mM apical DPC) it was 41±6%; in test [2] (3 mM apical DPC) it was 26±5%. Besides, the “100 μM inhibitor (percent change) in ISC” value in test [2] (setting [9]) is reported as -38.0 ± 0.8%. For the same compound, the “dose of DPC required to significantly inhibit the forskolin-stimulated current” value in test [4] is on record as 3 mM. Further, the “DPC concentration sufficient to return Isc to the control level” value in test [3] (apical DPC after M2GlyR, four experiments) was less than 1 mM.

On to `COc1ccc(Cl)cc1C(=O)NCCc1ccc(S(=O)(=O)NC(=O)NC2CCCCC2)cc1` [Glibenclamide, glibenclamide], for which the percent change in Isc at 100 µM in test [2] (Canis lupus familiaris, MDCK, 20 min, 100 μM inhibitor apical for 20 minutes after 100 μM C-K4-M2GlyR, negative = inhibition) was -18 ± 3.1%.

With `O=C(O)c1cc([N+](=O)[O-])ccc1NCCCc1ccccc1` [NPPB, 5-nitro-2-(3-phenylpropylamino)-benzoate], the “100 μM inhibitor (percent change) in ISC” value in test [2] (setting [9]) is recorded as -55.2 ± 4.5%.

`O=C(O)c1cccnc1Nc1cccc(C(F)(F)F)c1` [Niflumic acid, niflumic acid]: the inhibition at 100 µM in test [2] (Canis lupus familiaris, MDCK, 20 min, heading: 100 inhibitor in ISC, 100 μM inhibitor apical for 20 minutes after 100 μM C-K4-M2GlyR, negative = inhibition, read-out: 100 μM inhibitor (percent change) in ISC) is 57.1 ± 3.8%. The “block of the tetrameric channel” value in test [1] was “blocked”.

Turning to `Cc1cccc(C)c1NC(=O)C[N+](C)(C)C` [QX-222], the “block of the tetrameric channel” value in test [1] was “not blocked”.

`O=C1C[C@@H]2OCC=C3CN4CC[C@]56c7ccccc7N1[C@H]5[C@H]2[C@H]3C[C@H]46` [Strychnine]: in test [1], the “block of the tetrameric channel” value is listed as “does not block”.

`C=C[C@@]1(C)CC(=O)[C@]2(O)[C@@]3(C)[C@@H](O)CCC(C)(C)[C@@H]3[C@H](O)[C@H](OC(C)=O)[C@@]2(C)O1` [forskolin]: in test [5], the “increase of cAMP levels above the control” value was 266%. Also, the “fluid transport by MDCK monolayers” value in test [6] came to 0.47 ± 0.05 μL/hr/cm^2.
